Measurements taken from paper PMC8213057, “Targeting ALK2: An Open Science Approach to Developing Therapeutics for the Treatment of Diffuse Intrinsic Pontine Glioma” (Journal of Medicinal Chemistry, 2020).

Key:
[1] = molecular target: T1, MKK6 (Homo sapiens, UniProt P52564); test: biochemical; details: read-out: % enzyme activity, 1 μM; Run 1, Run 2
T1 sequence (P52564 1-334): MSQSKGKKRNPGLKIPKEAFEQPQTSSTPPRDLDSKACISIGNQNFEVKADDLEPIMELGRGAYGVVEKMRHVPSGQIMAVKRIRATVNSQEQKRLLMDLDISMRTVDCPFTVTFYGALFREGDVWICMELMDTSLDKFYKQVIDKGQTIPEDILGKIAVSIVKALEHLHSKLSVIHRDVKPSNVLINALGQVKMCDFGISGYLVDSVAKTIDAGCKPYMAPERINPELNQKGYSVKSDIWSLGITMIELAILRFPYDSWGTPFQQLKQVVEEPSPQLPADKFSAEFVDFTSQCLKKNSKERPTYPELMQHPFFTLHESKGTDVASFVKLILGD

[2] = molecular target: PKCeta (Homo sapiens, UniProt P24723); details: 1 μM; Run 1, Run 2
PKCeta, sequence (P24723 whole entry): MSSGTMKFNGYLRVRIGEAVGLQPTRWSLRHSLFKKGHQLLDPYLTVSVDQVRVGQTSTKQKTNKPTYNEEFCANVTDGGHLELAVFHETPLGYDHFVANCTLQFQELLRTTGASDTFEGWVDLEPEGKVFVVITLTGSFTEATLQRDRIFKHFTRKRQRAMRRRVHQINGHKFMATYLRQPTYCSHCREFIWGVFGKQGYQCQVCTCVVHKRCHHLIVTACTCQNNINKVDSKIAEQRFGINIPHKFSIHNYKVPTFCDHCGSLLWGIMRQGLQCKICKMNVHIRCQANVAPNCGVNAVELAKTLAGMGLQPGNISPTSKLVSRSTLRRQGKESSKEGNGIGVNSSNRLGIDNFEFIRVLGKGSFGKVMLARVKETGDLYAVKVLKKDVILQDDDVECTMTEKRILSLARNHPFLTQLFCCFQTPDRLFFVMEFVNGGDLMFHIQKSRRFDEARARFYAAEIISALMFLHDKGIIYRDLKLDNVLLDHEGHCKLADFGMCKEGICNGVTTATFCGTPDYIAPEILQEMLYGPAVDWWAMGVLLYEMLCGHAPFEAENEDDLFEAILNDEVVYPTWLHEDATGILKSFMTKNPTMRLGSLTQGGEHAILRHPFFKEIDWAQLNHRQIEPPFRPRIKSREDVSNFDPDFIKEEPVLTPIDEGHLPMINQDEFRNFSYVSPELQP

[3] = molecular target: MAPKAPK2 (Homo sapiens, UniProt P49137); details: 1 μM; Run 1, Run 2
MAPKAPK2, sequence (P49137 whole entry): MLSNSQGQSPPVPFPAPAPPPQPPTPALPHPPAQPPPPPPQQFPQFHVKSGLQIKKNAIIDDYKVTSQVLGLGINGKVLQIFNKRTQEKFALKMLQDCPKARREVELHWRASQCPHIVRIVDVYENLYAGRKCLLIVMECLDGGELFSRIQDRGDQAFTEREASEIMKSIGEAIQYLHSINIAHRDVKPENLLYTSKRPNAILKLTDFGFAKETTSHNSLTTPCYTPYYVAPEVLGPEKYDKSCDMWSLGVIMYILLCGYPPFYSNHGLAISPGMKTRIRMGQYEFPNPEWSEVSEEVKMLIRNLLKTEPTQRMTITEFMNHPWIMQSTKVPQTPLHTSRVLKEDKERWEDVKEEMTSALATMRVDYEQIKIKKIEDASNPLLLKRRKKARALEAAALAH

[4] = molecular target: MARK1 (Homo sapiens, UniProt Q9P0L2); test: biochemical; details: read-out: % enzyme activity, 1 μM; Run 1, Run 2
MARK1, sequence (Q9P0L2 whole entry): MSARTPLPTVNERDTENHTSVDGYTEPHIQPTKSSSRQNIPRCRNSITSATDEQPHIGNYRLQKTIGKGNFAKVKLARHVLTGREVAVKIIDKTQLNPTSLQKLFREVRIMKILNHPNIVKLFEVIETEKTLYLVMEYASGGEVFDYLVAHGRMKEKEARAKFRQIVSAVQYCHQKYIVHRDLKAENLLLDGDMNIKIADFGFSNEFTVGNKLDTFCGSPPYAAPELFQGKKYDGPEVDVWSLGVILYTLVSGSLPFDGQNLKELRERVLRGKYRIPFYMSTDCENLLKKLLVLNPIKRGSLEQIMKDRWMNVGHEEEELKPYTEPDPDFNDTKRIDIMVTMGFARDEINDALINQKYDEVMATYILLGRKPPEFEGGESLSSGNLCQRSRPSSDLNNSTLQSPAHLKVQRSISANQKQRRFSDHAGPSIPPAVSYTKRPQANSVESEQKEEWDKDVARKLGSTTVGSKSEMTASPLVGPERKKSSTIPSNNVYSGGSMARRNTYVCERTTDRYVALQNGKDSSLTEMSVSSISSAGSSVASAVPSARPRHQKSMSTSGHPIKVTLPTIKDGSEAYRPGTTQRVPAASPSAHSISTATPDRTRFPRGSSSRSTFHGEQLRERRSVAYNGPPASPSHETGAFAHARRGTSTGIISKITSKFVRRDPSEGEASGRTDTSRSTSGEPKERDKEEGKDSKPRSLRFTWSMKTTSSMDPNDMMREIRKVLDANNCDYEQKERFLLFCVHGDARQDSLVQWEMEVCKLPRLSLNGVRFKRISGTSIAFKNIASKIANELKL

[5] = molecular target: T2, PBK/TOPK (Homo sapiens, UniProt Q96KB5); details: 1 μM; Run 1, Run 2
T2 sequence (Q96KB5 1-322): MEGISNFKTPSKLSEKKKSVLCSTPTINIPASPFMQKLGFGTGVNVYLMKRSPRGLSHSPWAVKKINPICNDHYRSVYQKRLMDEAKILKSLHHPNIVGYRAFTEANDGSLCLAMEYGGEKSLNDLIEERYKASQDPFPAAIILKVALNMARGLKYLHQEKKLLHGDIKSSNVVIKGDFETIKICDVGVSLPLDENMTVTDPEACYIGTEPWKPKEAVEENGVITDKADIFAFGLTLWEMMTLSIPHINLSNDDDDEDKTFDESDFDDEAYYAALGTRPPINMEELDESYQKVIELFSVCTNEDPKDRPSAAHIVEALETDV

[6] = molecular target: BRK (Homo sapiens, UniProt Q13882); test: biochemical; details: read-out: % enzyme activity, 1 μM; Run 1, Run 2
BRK, sequence (Q13882 whole entry): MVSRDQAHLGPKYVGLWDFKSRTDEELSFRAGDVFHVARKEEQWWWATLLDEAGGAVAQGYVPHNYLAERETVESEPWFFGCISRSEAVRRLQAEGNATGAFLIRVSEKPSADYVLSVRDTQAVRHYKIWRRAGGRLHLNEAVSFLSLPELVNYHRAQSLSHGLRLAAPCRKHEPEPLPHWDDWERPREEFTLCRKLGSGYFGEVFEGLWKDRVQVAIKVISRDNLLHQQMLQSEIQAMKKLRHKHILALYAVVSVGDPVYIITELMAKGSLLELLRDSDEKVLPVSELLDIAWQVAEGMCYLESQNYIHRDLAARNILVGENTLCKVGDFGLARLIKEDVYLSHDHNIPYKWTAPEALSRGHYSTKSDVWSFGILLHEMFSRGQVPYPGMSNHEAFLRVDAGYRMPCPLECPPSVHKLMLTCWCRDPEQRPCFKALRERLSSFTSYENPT

[7] = molecular target: MEKK1 (Homo sapiens, UniProt Q13233); test: biochemical; details: read-out: % enzyme activity, 1 μM; Run 1, Run 2
[8] = molecular target: PLK1 (Homo sapiens, UniProt P53350); test: biochemical; details: read-out: % enzyme activity, 1 μM; Run 1, Run 2
[9] = molecular target: FYN (Homo sapiens, UniProt P06241); test: biochemical; details: read-out: % enzyme activity, 1 μM; Run 1, Run 2
FYN, sequence (P06241 whole entry): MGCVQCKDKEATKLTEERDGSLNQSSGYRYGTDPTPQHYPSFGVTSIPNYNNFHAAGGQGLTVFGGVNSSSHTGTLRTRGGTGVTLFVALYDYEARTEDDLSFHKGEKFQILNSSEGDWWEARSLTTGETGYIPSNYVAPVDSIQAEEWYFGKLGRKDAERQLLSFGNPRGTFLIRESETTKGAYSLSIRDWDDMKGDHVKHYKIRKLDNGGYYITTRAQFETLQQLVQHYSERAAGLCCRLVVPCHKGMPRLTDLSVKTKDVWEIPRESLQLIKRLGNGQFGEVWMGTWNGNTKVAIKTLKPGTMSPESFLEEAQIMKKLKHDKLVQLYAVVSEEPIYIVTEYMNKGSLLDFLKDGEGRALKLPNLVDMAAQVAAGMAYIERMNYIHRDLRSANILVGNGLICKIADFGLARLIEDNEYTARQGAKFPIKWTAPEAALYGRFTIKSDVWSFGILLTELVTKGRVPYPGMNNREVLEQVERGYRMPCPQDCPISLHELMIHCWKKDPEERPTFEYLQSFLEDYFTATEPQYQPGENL

[10] = molecular target: STK32B/YANK2 (Homo sapiens, UniProt Q9NY57); test: biochemical; details: read-out: % enzyme activity, 1 μM; Run 1, Run 2
STK32B/YANK2, sequence (Q9NY57 whole entry): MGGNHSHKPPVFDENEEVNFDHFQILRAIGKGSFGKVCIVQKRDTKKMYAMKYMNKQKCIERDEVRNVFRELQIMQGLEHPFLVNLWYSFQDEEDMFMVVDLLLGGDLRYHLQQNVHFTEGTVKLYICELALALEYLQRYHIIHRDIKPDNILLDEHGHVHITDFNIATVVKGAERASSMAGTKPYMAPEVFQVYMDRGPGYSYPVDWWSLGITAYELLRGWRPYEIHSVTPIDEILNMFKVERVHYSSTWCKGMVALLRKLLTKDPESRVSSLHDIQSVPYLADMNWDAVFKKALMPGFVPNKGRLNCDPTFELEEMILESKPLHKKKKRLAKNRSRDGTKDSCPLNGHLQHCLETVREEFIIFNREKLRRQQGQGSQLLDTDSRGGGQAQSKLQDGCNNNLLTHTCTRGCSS

[11] = molecular target: MARK2/PAR-1Ba (Homo sapiens, UniProt Q7KZI7); test: biochemical; details: read-out: % enzyme activity, 1 μM; Run 1, Run 2
MARK2/PAR-1Ba, sequence (Q7KZI7 whole entry): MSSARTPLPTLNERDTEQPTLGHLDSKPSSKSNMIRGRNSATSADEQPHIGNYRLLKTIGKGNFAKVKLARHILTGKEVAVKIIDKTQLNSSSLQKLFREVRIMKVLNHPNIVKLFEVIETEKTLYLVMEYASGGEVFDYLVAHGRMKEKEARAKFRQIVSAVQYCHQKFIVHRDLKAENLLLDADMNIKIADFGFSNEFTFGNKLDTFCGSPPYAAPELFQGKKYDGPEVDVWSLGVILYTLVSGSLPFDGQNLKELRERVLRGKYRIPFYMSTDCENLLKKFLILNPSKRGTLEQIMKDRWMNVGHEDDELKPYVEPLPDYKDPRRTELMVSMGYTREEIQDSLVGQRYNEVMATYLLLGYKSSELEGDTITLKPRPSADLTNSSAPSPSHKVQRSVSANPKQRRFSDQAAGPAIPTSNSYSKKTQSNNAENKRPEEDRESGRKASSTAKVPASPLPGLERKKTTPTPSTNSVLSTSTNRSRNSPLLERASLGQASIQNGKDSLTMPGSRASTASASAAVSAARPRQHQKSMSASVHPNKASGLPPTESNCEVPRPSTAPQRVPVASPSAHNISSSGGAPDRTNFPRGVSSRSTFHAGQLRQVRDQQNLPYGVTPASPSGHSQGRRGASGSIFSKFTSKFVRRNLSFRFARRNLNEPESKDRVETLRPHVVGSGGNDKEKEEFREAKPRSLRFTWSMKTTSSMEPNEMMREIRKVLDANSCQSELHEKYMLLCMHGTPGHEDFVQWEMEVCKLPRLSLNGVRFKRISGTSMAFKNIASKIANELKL

[12] = molecular target: T3, PHKg2 (Homo sapiens, UniProt P15735); details: 1 μM; Run 1, Run 2
T3 sequence (P15735 1-406): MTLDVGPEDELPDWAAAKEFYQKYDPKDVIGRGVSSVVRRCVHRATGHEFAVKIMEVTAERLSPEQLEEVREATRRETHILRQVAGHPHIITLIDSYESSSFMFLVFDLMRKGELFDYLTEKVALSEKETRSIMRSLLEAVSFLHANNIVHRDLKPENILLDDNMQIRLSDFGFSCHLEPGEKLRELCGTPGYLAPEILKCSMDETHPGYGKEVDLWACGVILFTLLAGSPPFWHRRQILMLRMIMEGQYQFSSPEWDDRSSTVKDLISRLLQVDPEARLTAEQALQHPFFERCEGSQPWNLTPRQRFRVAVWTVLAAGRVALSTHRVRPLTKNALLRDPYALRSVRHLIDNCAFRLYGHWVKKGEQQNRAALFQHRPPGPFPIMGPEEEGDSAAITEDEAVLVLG

[13] = molecular target: SIK1 (Homo sapiens, UniProt P57059); details: 1 μM; Run 1, Run 2
SIK1, sequence (P57059 whole entry): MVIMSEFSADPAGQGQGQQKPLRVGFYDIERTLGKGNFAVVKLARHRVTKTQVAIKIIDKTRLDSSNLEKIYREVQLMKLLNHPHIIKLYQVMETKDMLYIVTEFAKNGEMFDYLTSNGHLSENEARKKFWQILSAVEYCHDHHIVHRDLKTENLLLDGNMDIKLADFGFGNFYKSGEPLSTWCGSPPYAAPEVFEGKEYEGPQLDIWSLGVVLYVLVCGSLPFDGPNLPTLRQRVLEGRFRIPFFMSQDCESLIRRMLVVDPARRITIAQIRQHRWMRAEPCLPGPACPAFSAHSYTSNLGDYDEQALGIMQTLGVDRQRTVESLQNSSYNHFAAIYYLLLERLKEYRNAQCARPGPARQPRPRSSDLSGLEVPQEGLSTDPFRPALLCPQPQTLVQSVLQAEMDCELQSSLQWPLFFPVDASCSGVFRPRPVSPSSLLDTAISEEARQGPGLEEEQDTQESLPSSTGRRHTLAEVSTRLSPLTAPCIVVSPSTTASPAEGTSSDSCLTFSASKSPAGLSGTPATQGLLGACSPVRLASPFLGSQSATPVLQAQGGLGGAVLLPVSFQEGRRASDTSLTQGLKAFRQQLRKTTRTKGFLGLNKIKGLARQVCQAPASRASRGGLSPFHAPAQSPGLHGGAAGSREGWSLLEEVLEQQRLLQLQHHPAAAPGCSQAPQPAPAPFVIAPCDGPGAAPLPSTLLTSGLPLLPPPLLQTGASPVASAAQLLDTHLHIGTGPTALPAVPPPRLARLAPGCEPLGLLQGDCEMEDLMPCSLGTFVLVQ

[14] = molecular target: T4, MKK4 (Homo sapiens, UniProt P45985); details: 1 μM; Run 1, Run 2
T4 sequence (P45985 1-399): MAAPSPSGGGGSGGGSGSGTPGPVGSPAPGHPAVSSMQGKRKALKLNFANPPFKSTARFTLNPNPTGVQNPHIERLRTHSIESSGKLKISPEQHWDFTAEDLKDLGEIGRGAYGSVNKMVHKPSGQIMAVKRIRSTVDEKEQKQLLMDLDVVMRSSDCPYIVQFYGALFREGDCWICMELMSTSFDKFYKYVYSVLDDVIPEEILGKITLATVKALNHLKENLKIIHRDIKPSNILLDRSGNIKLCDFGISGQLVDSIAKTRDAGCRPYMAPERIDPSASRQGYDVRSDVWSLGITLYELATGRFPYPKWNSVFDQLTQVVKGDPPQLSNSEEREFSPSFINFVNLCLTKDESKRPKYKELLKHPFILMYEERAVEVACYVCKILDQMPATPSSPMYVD

[15] = molecular target: c-Kit (Homo sapiens, UniProt P10721); test: biochemical; details: read-out: % enzyme activity, 1 μM; Run 1, Run 2

| Structure (SMILES) | remaining activity at 1 µM [1] [%] | % enzyme activity [2] [%] | % enzyme activity [3] [%] | remaining activity at 1 µM [4] [%] | % enzyme activity [5] [%] | remaining activity at 1 µM [6] [%] | remaining activity at 1 µM [7] [%] | remaining activity at 1 µM [8] [%] | remaining activity at 1 µM [9] [%] | remaining activity at 1 µM [10] [%] | remaining activity at 1 µM [11] [%] | % enzyme activity [12] [%] | % enzyme activity [13] [%] | % enzyme activity [14] [%] | remaining activity at 1 µM [15] [%] |
| --- | --- | --- | --- | --- | --- | --- | --- | --- | --- | --- | --- | --- | --- | --- | --- |
| COc1cc(-c2cncc(-c3ccc(N4CCN(C)CC4)cc3)c2C)cc(F)c1C(N)=O [Compound 26a, 2-Fluoro-6-methoxy-4-(4-methyl-5-(4-(4-methylpiperazin-1-yl)phenyl)pyridin-3-yl)benzamide] | 84.4 | 93.90 | 101.22 | 88 | 89.81 | 58.3 | 94.3 | 92.4 | 99.9 | 87.6 | 92.8 | 93.32 | 82.71 | 98.66 | 74.1 |
| COc1cc(-c2cncc(-c3ccc(N4C[C@@H](C)N(C)[C@@H](C)C4)cc3)c2C)cc(F)c1C(N)=O [Compound 26c, 2-Fluoro-6-methoxy-4-(4-methyl-5-(4-((3R,5S)-3,4,5-trimethylpiperazin-1-yl)phenyl)pyridin-3-yl)benzamide] | 79.7 | 98.10 | 93.08 | 94.1 | 102.56 | 73.9 | 97.7 | 92.7 | 97 | 98.2 | 104 | 96.43 | 91.60 | 93.94 | 75.8 |
